Assay results taken from EP0308983A2, “NMR imaging with Mn(II) coordination compositions” (priority 1987, dated 1989).
Values joined by “and” are separate entries in the source; they are usually repeats but may differ in a detail not shown here. Equal entries are not always repeated.

How the values were obtained:
[1] = system: New Zealand white rabbits; conditions: rabbit, 1.5 T
Protocol: A General Electric Signa Magnetic Resonance Imaging System, operating at 1.5 T, and using a knee surface coil was used. New Zealand white rabbits (ca. 2.5 kg wt.) were used for imaging. […] With these instrument settings, an image could be acquired in about 1.3 min. Images of the rabbit kidney and liver were taken before injection and at 1, 3, 6, 8, 12, 16, 21, 26, 36, 46, and 56 min intervals after injection.
Schematic drawings of the images before injection and at intervals of 10 and 60 minutes are show in Fig. 1, 2 and 3, respectively.

[2] = system: New Zealand white rabbit
Protocol: This solution was infused into a New Zealand white rabbit (3.1 kg wt.) at 0.065 mmole/kg/min for 5 min to achieve a total dose of […]. […] 15 Min after the infusion, the rabbit was sacrificed by lethal pentobarbitol injection, and the heart and liver were removed. Samples of these organs were tested for relaxation time at 0.15 T with a RADX spectrometer (Houston, TX).
At a lower dose level (0.10 mmole/kg), the effects of a rapid bolus injection (10 sec) or a slow infusion (over 5 min) were tested in two New Zealand white rabbits. 15 Min after the end of the infusion or injection, the animals were sacrificed and T₁ and T₂ values were measured on 4-16 individual samples of kidney, liver and heart tissue.

[3] = Stability of aqueous solutions after addition of a NaOH solution; conditions: ratio of OH⁻ to compound of 0.2; 161 mM (glycine) or 167 mM (gluconate) aqueous solution
Protocol: NMR contrast agents must be stable in solution under adverse conditions to be effective as pharmaceutical agents.
One ml of a 161 mM solution (initial pH 5) was placed in a test tube at 19°C. Sodium hydroxide (0.032 ml; 1 N) was added to the solution, giving a ratio of OH⁻ to compound of 0.2.
[Manganese(II)·(H₂O)₂·(gluconate)₂]⁺²(Cl₂)⁻² was prepared according to the procedure of Example 24. Deionized water was added to form a 167 mM clear solution. One mole equivalent of sodium hydroxide solution was added to five mole equivalents of the [manganese(II)·(H₂O)₂·(gluconate)₂]⁺²(Cl₂)⁻² solution, giving a ratio of OH⁻ to compound of 0.20.

[4] = Paramagnetic relaxation properties in human plasma at 37°C; format: physicochemical
[5] = system: Rats; conditions: IV, standard conditions, 10 animals per dosage group
Source text: The doses were 0.3, 0.5, and 0.8 mmole/kg. 10 Animals were used in each dosage group.

[6] = Paramagnetic relaxation properties in water at 10 MHz (0.15T), RADX spin analyzer; format: physicochemical; conditions: 10 MHz (0.15T)
Summary of the method: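 Mn(II) complexes in water were measured after thermal equilibrium at 37°C. T₁ (spin-lattice) and T₂ (spin-spin) relaxation values were recorded, in triplicate where stated.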

[7] = Plasma clearance: plasma T₁ and T₂ times after injection; format: in vivo; conditions: rabbit, 0.1 mmole/kg; for plasma T₁ / plasma T₂: 0.15 T
Protocol: A dose of 0.1 mmole/kg of GdDTPA was injected into a rabbit and blood samples were drawn at 10 min intervals for 50 min. The blood was centrifuged, and the plasma T₁ and T₂ times were measured at 0.15 T with a RADX PROTON SPIN ANALYZER (Houston, TX).

[8] = 0.10 mmole/kg, bolus (10 sec), 15 min after, mean of samples
[9] = 0.10 mmole/kg, slow infusion (over 5 min), 15 min after, mean of samples
[10] = infusion 0.065 mmole/kg/min for 5 min, total dose 0.31 mole/kg, 15 min after infusion, 0.15 T
[11] = 37°C, repeat measurement 80 minutes later
[12] = 0.99 mM solution in water, 37°C, triplicate, mean +/- SD

NCC(=O)O.NCC(=O)O.O.O.[Cl-].[Cl-].[Mn+2] [[Manganese(II)·(H₂O)₂·(glycine)₂]⁺²(Cl₂)⁻²]
liver parenchyma image intensity ([1]; image after one hour (60 min)): returned to normal intensity | enhancement of the liver and parenchyma in the image ([1]; one min after injection, doses of 10 and 20 µmole/kg, Spin Echo TR = 300 msec, TE = 20 msec): over 100% | Heart T₁, Bolus Injection, Mean [2, 8]: 156 ms | Heart T₂, Bolus Injection, Mean [2, 8]: 40 ms | Kidney T₁, Bolus Injection, Mean [2, 8]: 109 ms | Kidney T₂, Bolus Injection, Mean [2, 8]: 40 ms | Liver T₁, Bolus Injection, Mean [2, 8]: 51 ms | Liver T₂, Bolus Injection, Mean [2, 8]: 18 ms | Liver T₂, Infusion ([2]; 0.10 mmole/kg, slow infusion (over 5 min), 15 min after, individual tissue samples): 15 msec (2×) and 11 msec and 20 msec | Heart T₁, Infusion, Mean [2, 9]: 179 ms | Heart T₂, Infusion, Mean [2, 9]: 41 ms | Kidney T₁, Infusion, Mean [2, 9]: 120 ms | Kidney T₂, Infusion, Mean [2, 9]: 45 ms | Liver T₁, Infusion, Mean [2, 9]: 39 ms | Liver T₂, Infusion, Mean [2, 9]: 15 ms | tolerance of the infusion ([2]; infusion 0.065 mmole/kg/min for 5 min, total dose 0.31 mole/kg): tolerated the infusion without outward signs of a pharmacologic or toxicologic effect | heart T₁ [2, 10]: 45 ms | heart T₂ [2, 10]: 21 ms | liver T₁ [2, 10]: 19 ms | liver T₂ [2, 10]: 10 ms | stability after addition of a NaOH solution [3]: the solution remained clear with no discoloration or formation of a precipitate | T₂ value ([4]; 94 µM final concentration, 37°C): 184 ± 12 ms | T₁ value ([4]; 94 µM final concentration, 37°C, triplicate): 227 ± 3 ms | R₁ ([4]; 37°C): 46.9 mM⁻¹ s⁻¹ | R₂ ([4]; 37°C): 57.8 mM⁻¹ s⁻¹ | T₁ changed by (repeat measurement) [4, 11]: 2% | T₂ changed by (repeat measurement) [4, 11]: 2% | T₂ relaxivity in plasma, fold greater than GdDTPA ([4]; versus GdDTPA): 12.0 fold | T₁ relaxivity in plasma, fold greater than GdDTPA ([4]; versus gadolinium diethylenetriaminepentaacetic acid chelate (GdDTPA)): 9.8 fold | LD₅₀ [5]: 0.70 mmol/kg | spin-lattice (T₁) relaxation value [6, 12]: 109 ± 5 ms | spin-spin (T₂) relaxation value [6, 12]: 26 ± 1 ms | millimolar relaxivity for T₁ ([6]; in water, calculated from T₁ and concentration): 9.27 mM⁻¹ s⁻¹ | millimolar relaxivity for T₂ ([6]; in water, calculated from T₂ and concentration): 38.9 mM⁻¹ s⁻¹ | time for which the plasma T₁ was maintained below 250 [7]: 40 min | plasma T₁ ([7]; 0 min (baseline)): 1600 ms | plasma T₂ ([7]; 0 min (baseline)): 447 ms | plasma T₁ ([7]; 10 min): 58 ms | plasma T₂ ([7]; 10 min): 42 ms | plasma T₁ ([7]; 20 min): 102 ms | plasma T₂ ([7]; 20 min): 65 ms | plasma T₁ ([7]; 30 min): 156 ms | plasma T₂ ([7]; 30 min): 110 ms | plasma T₁ ([7]; 40 min): 224 ms | plasma T₂ ([7]; 40 min): 156 ms | plasma T₁ ([7]; 50 min): 259 ms | plasma T₂ ([7]; 50 min): 180 ms | plasma T₁ ([7]; 60 min): 323 ms | plasma T₂ ([7]; 60 min): 205 ms | plasma T₁ ([7]; 70 min): 453 ms | plasma T₂ ([7]; 70 min): 257 ms | plasma T₁ ([7]; 80 min): 550 ms | plasma T₂ ([7]; 80 min): 293 ms | plasma T₁ ([7]; 90 min): 625 ms | plasma T₂ ([7]; 90 min): 295 ms
